The values that follow come from PMC9516332 (Frontiers in Oncology, 2022).

Like-named read-outs stand apart in the source and are kept apart here.

Common to all, as to assay: Kinase panel profiling at 1 µmol/L (MSA or IMAP), percentage inhibition
What all share (type): biochemical

The target of assay [1] is panel of 255 wild-type kinases (Homo sapiens, UniProt P31749). The settings on record: AKT1 kinase assay; 1 µmol/L single concentration; read-out: %-inhibition AKT1.
Assay [2] has as its target panel of 255 wild-type kinases (Homo sapiens, UniProt Q9Y2H1). The settings on record: NDR2; 1 µmol/L single concentration; read-out: %-inhibition, NDR2.
In assay [3] the target is T1, panel of 255 wild-type kinases (Homo sapiens, UniProt Q05513).
T1 sequence (Q05513 1-592): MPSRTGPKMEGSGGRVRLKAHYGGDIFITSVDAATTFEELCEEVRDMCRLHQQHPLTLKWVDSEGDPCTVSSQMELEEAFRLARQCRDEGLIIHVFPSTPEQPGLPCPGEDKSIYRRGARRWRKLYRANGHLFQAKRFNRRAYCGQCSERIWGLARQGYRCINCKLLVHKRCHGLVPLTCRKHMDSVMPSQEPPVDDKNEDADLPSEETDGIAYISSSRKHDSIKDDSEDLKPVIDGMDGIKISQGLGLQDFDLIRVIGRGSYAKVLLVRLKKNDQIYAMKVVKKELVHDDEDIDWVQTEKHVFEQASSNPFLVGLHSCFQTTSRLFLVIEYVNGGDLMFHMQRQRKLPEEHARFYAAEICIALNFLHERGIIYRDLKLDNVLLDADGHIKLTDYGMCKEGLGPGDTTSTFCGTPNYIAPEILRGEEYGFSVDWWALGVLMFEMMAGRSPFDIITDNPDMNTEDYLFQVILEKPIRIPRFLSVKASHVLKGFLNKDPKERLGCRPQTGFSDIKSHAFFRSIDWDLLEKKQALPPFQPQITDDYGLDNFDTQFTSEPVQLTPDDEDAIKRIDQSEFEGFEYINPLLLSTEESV
The following applies: kinase PKCζ; 1 µmol/L single concentration; read-out: %-inhibition at 1 µmol/L, PKCζ.

Assay [4] addresses panel of 255 wild-type kinases (Homo sapiens, UniProt Q9NYY3). The following applies: kinase PLK2; 1 µmol/L single concentration; read-out: %-inhibition at 1 µmol/L, PLK2.
In assay [5] the target is panel of 255 wild-type kinases (Homo sapiens, UniProt Q9H2G2). The settings on record: kinase SLK; 1 µmol/L single concentration; read-out: %-inhibition at 1 µmol/L, SLK.
The target of assay [6] is panel of 255 wild-type kinases (Homo sapiens, UniProt Q15119). The settings on record: kinase PDHK2; 1 µmol/L single concentration; read-out: %-inhibition at 1 µmol/L, PDHK2.
In assay [7] the target is panel of 255 wild-type kinases (Homo sapiens, UniProt P09619). The settings on record: read-out: %-inhibition at 1 µmol/L, PDGFRβ.
For assay [8], the target named is panel of 255 wild-type kinases (Homo sapiens, UniProt P17612). The settings on record: kinase PKACα; 1 µmol/L single concentration; read-out: %-inhibition at 1 µmol/L, PKACα.
The target in assay [9] is T2, panel of 255 wild-type kinases (Homo sapiens, UniProt Q02156).
T2 sequence (Q02156 1-737): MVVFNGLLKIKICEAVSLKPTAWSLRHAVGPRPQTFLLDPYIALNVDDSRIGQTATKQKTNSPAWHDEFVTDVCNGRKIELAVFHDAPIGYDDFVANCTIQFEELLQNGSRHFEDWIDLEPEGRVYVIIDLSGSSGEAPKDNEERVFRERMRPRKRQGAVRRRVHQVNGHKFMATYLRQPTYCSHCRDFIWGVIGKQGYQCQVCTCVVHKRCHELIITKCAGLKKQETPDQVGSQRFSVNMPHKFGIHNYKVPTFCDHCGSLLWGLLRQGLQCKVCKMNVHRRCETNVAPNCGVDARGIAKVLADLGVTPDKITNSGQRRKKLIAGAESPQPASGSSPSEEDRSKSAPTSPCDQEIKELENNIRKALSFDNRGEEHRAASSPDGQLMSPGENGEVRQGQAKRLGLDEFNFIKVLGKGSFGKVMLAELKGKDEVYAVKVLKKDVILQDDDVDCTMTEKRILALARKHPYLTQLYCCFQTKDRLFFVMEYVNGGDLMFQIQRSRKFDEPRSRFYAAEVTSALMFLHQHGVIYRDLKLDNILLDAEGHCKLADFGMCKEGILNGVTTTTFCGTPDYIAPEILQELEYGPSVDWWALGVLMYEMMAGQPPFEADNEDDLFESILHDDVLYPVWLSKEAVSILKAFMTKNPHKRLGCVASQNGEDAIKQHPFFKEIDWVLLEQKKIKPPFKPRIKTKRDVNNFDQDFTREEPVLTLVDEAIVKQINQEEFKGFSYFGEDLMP
The following applies: kinase PKCε; 1 µmol/L single concentration; read-out: %-inhibition at 1 µmol/L, PKCε.

The target in assay [10] is panel of 255 wild-type kinases (Homo sapiens, UniProt Q8N568). The settings on record: kinase DCAMKL2; 1 µmol/L single concentration; read-out: %-inhibition at 1 µmol/L, DCAMKL2.
Assay [11] deals with panel of 255 wild-type kinases (Homo sapiens, UniProt P19525). The settings on record: kinase PKR; 1 µmol/L single concentration; read-out: %-inhibition at 1 µmol/L, PKR.
[12] abbreviates: kinase PDGFRβ, 1 µmol/L single concentration.

For the compound `O=C(Nc1cnn2ccc(N3CCC[C@@H]3c3cc(F)ccc3F)nc12)N1CC[C@H](O)C1` [larotrectinib], the inhibition at 1 µM was -15% in [1]; -4.33% in assay [2]; 0.558% in [3]; 2.14% in [4]; 5.58% in assay [5]; 5% in assay [6]. Also, the inhibition at 1 µM is -0.157% in [7] (setting [12]); -20% in [8]; 8% in assay [9]; 0.701% in assay [10]; -2.17% in assay [11].

In the case of `C[C@H]1Oc2cc(cnc2N)-c2c(nn(C)c2C#N)CN(C)C(=O)c2ccc(F)cc21` [lorlatinib], the inhibition at 1 µM in assay [1] was -4%; in [2] it was 2.18%; in assay [3], 17%; in [4], 10%; in [5], 90%; in [6], 1.88%. The inhibition at 1 µM is 2.32% in assay [7] (setting [12]); -8% in assay [8]; 10% in assay [9]; 74% in [10]; 0.666% in [11].

Consider `CCN1C(=O)N(c2c(F)c(OC)cc(OC)c2F)Cc2cnc3[nH]c(CN4CCOCC4)cc3c21` [pemigatinib], for which the inhibition at 1 µM in [1] was -12%; in assay [2], -1.83%; in [3], -0.0817%; in assay [4] it was 0.757%; in [5], 0.681%; in assay [6] it was 3.53%. The inhibition at 1 µM is 73% in assay [7] (setting [12]); -9% in assay [8]; 5% in assay [9]; 27% in assay [10]; 85% in assay [11].

For the compound `FC(F)(F)c1ccc(CNc2ccc(Cc3c[nH]c4ncc(Cl)cc34)cn2)cn1` [pexidartinib], the inhibition at 1 µM in assay [1] was -20%; in [2], 8%; in assay [3], 13%; in assay [4], 7%; in assay [5], 11%; in assay [6] it was 4%. Moreover, the inhibition at 1 µM in [7] (setting [12]) is 64%; in [8], -7%; in [9], 1.26%; in assay [10], 3.25%; in assay [11], -10%.

Turning to `CO[C@]1(C(=O)N[C@@H](C)c2ccc(-n3cc(F)cn3)nc2)CC[C@H](c2nc(C)cc(Nc3cc(C)[nH]n3)n2)CC1` [pralsetinib], the inhibition at 1 µM was -12% in [1]; 0.23% in assay [2]; -0.213% in assay [3]; 6.54% in [4]; 17% in [5]; 1.11% in [6]. Besides, the inhibition at 1 µM in assay [7] (setting [12]) was 99%; in assay [8], 16%; in assay [9], 0.425%; in assay [10] it was 1.65%; in assay [11] it was 8%.

Take `CCn1c(=O)c(-c2cc(NC(=O)Nc3ccccc3)c(F)cc2Br)cc2cnc(NC)cc21` [ripretinib]: the inhibition at 1 µM is -6% in assay [1]; 2.69% in [2]; 15% in assay [3]; 6% in assay [4]; 18% in assay [5]; 0.884% in assay [6]. Besides, the inhibition at 1 µM in [7] is 106%; in [8] it was -16%; in assay [9], 6%; in assay [10], 2%; in assay [11], -6%.

As for `COc1ccc(CN2C3CC2CN(c2ccc(-c4cc(OCC(C)(C)O)cn5ncc(C#N)c45)cn2)C3)cn1` [selpercatinib], the inhibition at 1 µM in assay [1] was -10%; in assay [2] it was -4.53%; in [3], -1%; in [4], 4%; in assay [5], 14%; in [6], -0.608%. For the same compound, the inhibition at 1 µM was 94% in [7] (setting [12]); -5% in assay [8]; 7% in assay [9]; 1.22% in assay [10]; 0.94% in assay [11].

`Cn1cnc2c(F)c(Nc3ccc(Br)cc3Cl)c(C(=O)NOCCO)cc21` [selumetinib]: the inhibition at 1 µM was -11% in assay [1]; -3.24% in assay [2]; 1% in [3]; 2.78% in assay [4]; 8% in assay [5]; 2.47% in assay [6]. Besides, the inhibition at 1 µM is 20% in [7] (setting [12]); -28% in assay [8]; 0.617% in assay [9]; 0.902% in assay [10]; 1.47% in assay [11].

On to `Cc1cc(Nc2ncnc3ccc(NC4=NC(C)(C)CO4)cc23)ccc1Oc1ccn2ncnc2c1` [tucatinib], for which the inhibition at 1 µM is -9% in [1]; -0.504% in assay [2]; -1.11% in assay [3]; 7% in assay [4]; 11% in assay [5]; -2% in [6]. For the same compound, the inhibition at 1 µM in [7] (setting [12]) was 31%; in assay [8], -20%; in assay [9], -0.0549%; in assay [10], 3.59%; in assay [11], 3.37%.

Take `C=CC(=O)N1CCC([C@@H]2CCNc3c(C(N)=O)c(-c4ccc(Oc5ccccc5)cc4)nn32)CC1` [zanubrutinib]: the inhibition at 1 µM was -13% in assay [1]; 0.505% in [2]; 0.367% in assay [3]; 0.329% in [4]; 2.36% in [5]; 5% in assay [6]. In addition, the inhibition at 1 µM in assay [7] (setting [12]) is 3.39%; in assay [8] it was -13%; in assay [9], 8%; in assay [10], 0.323%; in [11] it was -1.41%.
